In series [1] the test system is MCF-7 human breast cancer cells. Nature of the series: Cell viability (MTT) assay, MCF-7. The format is cell-based. The procedure:
(§1) The viability of MCF-7 breast cancer cells was measured by the method of Carmichael using 3-(4,5-dimethylthiazol-2-yl)-2,5-diphenyltetrazolium (Table 2). In terms of reduction in cell viability, the compounds rank in MCF-7 cells in the order chlorambucil > 4j > 4i > 4h > 4n > 4k > 4l > 4a > 4g > 4b–4f.
(§2) Cultured normal human skin fibroblasts and MCF-7 human breast cancer cells were maintained in DMEM supplemented with 10% fetal bovine serum (FBS), 50 U/cm^3 penicillin, and 50 μg/cm^3 streptomycin at 37 °C. Cells were cultured in Costar flasks and subconfluent cells were detached with 0.05% trypsin and 0.02% EDTA in calcium-free phosphate-buffered saline, counted in hemocytometers, and plated at 5 × 10^5 cells per well of 6-well plates (Nunc) in 2 cm^3 of growth medium (DMEM without phenol red with 10% CPSR1). Cells reached about 80% of confluency at day 3, and in most cases, such cells were used for the assays.
(§3) The assay was performed according to the method of Carmichael using 3-(4,5-dimethylthiazole-2-yl)-2,5-diphenyltetrazolium bromide (MTT). Confluent cells cultured for 24 h with various concentrations of studied compounds in 6-well plates were washed three times with PBS and then incubated for 4 h in 1 cm^3 of MTT solution (0.5 mg/cm^3 of PBS) at 37 °C in 5% CO2 in an incubator. The medium was removed and 1 cm^3 of […] HCl in absolute isopropanol was added to the cells attached. Absorbance of converted dye in the living cells was measured at a wavelength of 570 nm. Cell viability of breast cancer cells cultured in the presence of ligands was calculated as percentage of controlled cells.

In series [2] the test system is normal human skin fibroblasts. Kind of series: Cell viability (MTT) assay, fibroblasts. The format is cell-based. As for the experimental part:
as §1, §2, §3

For series [3], the system named is MCF-7 breast cancer cells. Kind of series: DNA synthesis assay ([3H]-thymidine incorporation), MCF-7. The format is cell-based, human. As for the experimental part:
We studied the effect of compounds 4a–4n and chlorambucil on DNA synthesis in MCF-7 breast cancer cells (Table 3).
as §2
MCF-7 cells were seeded in 6-well plates and were incubated with varying concentrations of […] or chlorambucil and 0.5 μCi of [^3H]-thymidine for 24 h at 37 °C [51]. The cells were then harvested by trypsinization, washed with cold phosphate-buffered saline, and centrifuged for 10 min at 1500 g several times (4–5) until the dpm in the washes were similar to the reagent control. Radioactivity was determined by liquid scintillation counting. [^3H]-thymidine uptake was expressed as dpm/well.
Background: Uptake of a labelled nucleoside into DNA is a usual measure of proliferation.

In series [4] the test system is Fibroblasts. Nature of the series: DNA synthesis assay ([3H]-thymidine incorporation), fibroblasts. The format is cell-based, human. The conditions noted are these: read-out: IC50 inhibition of [3H]-thymidine incorporation into DNA.
Series [5] concerns human breast cancer cell line (MCF-7 and MDA-MB-231). Also noted: method as in PMID 26133068. Conditions: cell line not specified (MCF-7 and MDA-MB-231 tested); cited from earlier work.
A short description of series [6]: Cell viability (MTT) assay, fibroblasts. The format is cell-based, human. The procedure:
as §1, §2, §3

The mark [7] stands for this setting: MCF-7 cells, 24 h, mean ± SD of four independent experiments, read-out: IC50 inhibition of [3H]-thymidine incorporation into DNA.
The mark [8] stands for this setting: Fibroblasts, 24 h, mean ± SD of four independent experiments.
Setting [9] is: Homo sapiens, MCF7, 24 h, read-out: IC50 cytotoxicity (cell viability, MTT).
The mark [10] stands for this setting: Homo sapiens, MCF7, MCF-7 cells, 24 h, mean ± SD of four independent experiments, read-out: IC50 inhibition of [3H]-thymidine incorporation into DNA.
The mark [11] stands for this setting: Homo sapiens, Fibroblast, Fibroblasts, 24 h, mean ± SD of four independent experiments.

The source of these data is paper PMC6060961, “Synthesis of unsymmetrical disulfanes bearing 1,2,4-triazine scaffold and their in vitro screening towards anti-breast cancer activity” (Monatshefte Fur Chemie, 2018).

Like-named read-outs stand apart in the source and are kept apart here.

As to “5,6-Diphenyl-1,2,4-triazine-3-yl isobutyl disulfide [Compound 4c]”, the IC50 in series [1], in series [2], in series [3] (setting [7]) and in series [4] (setting [8]) was over 200 µM in each case.

With “5,6-Diphenyl-1,2,4-triazine-3-yl tert-butyl disulfide [Compound 4d]”, the IC50 in series [1], in series [2], in series [3] (setting [7]) and in series [4] (setting [8]) was over 200 µM throughout.

Take `c1ccc(-c2nnc(SSc3nnc(-c4ccccc4)c(-c4ccccc4)n3)nc2-c2ccccc2)cc1` [5,5′,6,6′-tetraphenylbis(1,2,4-triazin-3-yl)disulfane]: the IC50 in series [5] was 25 µM.

For `O=C(O)CCCc1ccc(N(CCCl)CCCl)cc1` [Chlorambucil, reference compound], the IC50 in series [1] (setting [9]) is 97 ± 2 µM; in series [3] (Homo sapiens, MCF7, read-out: IC50 inhibition of [3H]-thymidine incorporation into DNA) it was 47 ± 2 µM; in series [4] (Homo sapiens, Fibroblast), 120 ± 1 µM. In series [6] (normal human skin fibroblasts, 24 h, mean ± SD of four independent experiments, read-out: IC50 cytotoxicity (cell viability, MTT)), the IC50 at 24 h worked out at 150 ± 1 µM.

With `CC(C)SSc1nnc(-c2ccccc2)c(-c2ccccc2)n1` [Compound 4a, 5,6-Diphenyl-1,2,4-triazine-3-yl isopropyl disulfide], the IC50 is 190 ± 2 µM in series [1] (setting [9]), 188 ± 2 µM in series [3] (setting [10]) and over 200 µM in series [4] (setting [11]). Further, the IC50 at 24 h in series [6] (human) is over 200 µM.

On to `CCCCSSc1nnc(-c2ccccc2)c(-c2ccccc2)n1` [Compound 4b, 5,6-Diphenyl-1,2,4-triazine-3-yl n-butyl disulfide], for which the IC50 in series [1] (setting [9]), in series [3] (setting [10]) and in series [4] (setting [11]) was over 200 µM in each case. The compound further registered an IC50 at 24 h in series [6] (human) of over 200 µM.

Regarding `CCCCCSSc1nnc(-c2ccccc2)c(-c2ccccc2)n1` [Compound 4e, 5,6-Diphenyl-1,2,4-triazine-3-yl n-pentyl disulfide], the IC50 in series [1] (setting [9]), in series [3] (setting [10]) and in series [4] (setting [11]) was over 200 µM in each case. This compound came in with an IC50 at 24 h in series [6] (human) of over 200 µM.

For the compound `CCCCCCCCCCCCSSc1nnc(-c2ccccc2)c(-c2ccccc2)n1` [Compound 4f, 5,6-Diphenyl-1,2,4-triazine-3-yl n-dodecyl disulfide], the IC50 in series [1] (setting [9]), in series [3] (setting [10]) and in series [4] (setting [11]) was over 200 µM throughout. The compound further displayed an IC50 at 24 h in series [6] (human) of over 200 µM.

For the compound `OCCCCCCCCCCCSSc1nnc(-c2ccccc2)c(-c2ccccc2)n1` [Compound 4g, 5,6-Diphenyl-1,2,4-triazine-3-yl 11-hydroxyundecyl disulfide], the IC50 in series [1] (setting [9]) is 197 ± 1 µM; in series [3] (setting [10]), 188 ± 1 µM; in series [4] (setting [11]) it was over 200 µM. For the same compound, the IC50 at 24 h in series [6] (human) is over 200 µM.

As to `c1ccc(SSc2nnc(-c3ccccc3)c(-c3ccccc3)n2)cc1` [Compound 4h, 5,6-Diphenyl-1,2,4-triazine-3-yl phenyl disulfide], the IC50 in series [1] (setting [9]) was 115 ± 2 µM; in series [3] (setting [10]), 68 ± 2 µM; in series [4] (setting [11]), over 200 µM. Also, the IC50 at 24 h in series [6] (human) is over 200 µM.

As to `Cc1ccc(SSc2nnc(-c3ccccc3)c(-c3ccccc3)n2)cc1` [Compound 4i, 5,6-Diphenyl-1,2,4-triazine-3-yl p-tolyl disulfide], the IC50 is 108 ± 1 µM in series [1] (setting [9]), 60 ± 2 µM in series [3] (setting [10]) and over 200 µM in series [4] (setting [11]). The IC50 at 24 h in series [6] (human) is over 200 µM.

Regarding `COc1ccc(SSc2nnc(-c3ccccc3)c(-c3ccccc3)n2)cc1` [Compound 4j, 5,6-Diphenyl-1,2,4-triazine-3-yl 4-methoxyphenyl disulfide], the IC50 in series [1] (setting [9]) is 102 ± 2 µM; in series [3] (setting [10]), 59 ± 2 µM; in series [4] (setting [11]) it was over 200 µM. The same compound yielded an IC50 at 24 h in series [6] (human) of over 200 µM.

Regarding `Clc1ccc(SSc2nnc(-c3ccccc3)c(-c3ccccc3)n2)cc1` [Compound 4k, 5,6-Diphenyl-1,2,4-triazine-3-yl 4-chlorophenyl disulfide], the IC50 was 121 ± 2 µM in series [1] (setting [9]), 83 ± 1 µM in series [3] (setting [10]) and over 200 µM in series [4] (setting [11]). The same compound had an IC50 at 24 h in series [6] (human) of over 200 µM.

In the case of `O=[N+]([O-])c1ccc(SSc2nnc(-c3ccccc3)c(-c3ccccc3)n2)cc1` [Compound 4l, 5,6-Diphenyl-1,2,4-triazine-3-yl 4-nitrophenyl disulfide], the IC50 in series [1] (setting [9]) was 140 ± 1 µM; in series [3] (setting [10]) it was 142 ± 1 µM; in series [4] (setting [11]) it was over 200 µM. The IC50 at 24 h in series [6] (human) is over 200 µM.

On to `c1ccc(-c2nnc(SSc3nc4ccccc4s3)nc2-c2ccccc2)cc1` [Compound 4n, 5,6-Diphenyl-1,2,4-triazine-3-yl benzothiazol-2-yl disulfide], for which the IC50 in series [1] (setting [9]) was 119 ± 2 µM; in series [3] (setting [10]), 75 ± 2 µM; in series [4] (setting [11]), over 200 µM. In series [6] (human), this compound had an IC50 at 24 h of over 200 µM.
